From the NIST ThermoML archive (doi:10.1021/je050050p)
± gives the expanded uncertainty stated by the source.

Assay: xn = mol fraction of the nth substance listed
Settings: Liquid, Vibrating tube method

CN(C)C=O [dimethylformamide] + O=C=O
mass density (352.87 K, 13027 kPa, x2 = 0.4268): 908.06 ± 0.42 kg/m3 | mass density (352.87 K, 13995 kPa, x2 = 0.4268): 909.43 ± 0.42 kg/m3 | mass density (352.87 K, 14004 kPa, x2 = 0.2876): 910.39 ± 0.42 kg/m3 | mass density (352.87 K, 15002 kPa, x2 = 0.4268): 910.84 ± 0.42 kg/m3 | mass density (352.87 K, 15013 kPa, x2 = 0.2876): 911.48 ± 0.42 kg/m3 | mass density (352.87 K, 16013 kPa, x2 = 0.2876): 912.56 ± 0.42 kg/m3 | mass density (352.87 K, 16029 kPa, x2 = 0.4268): 912.27 ± 0.42 kg/m3 | mass density (352.87 K, 17030 kPa, x2 = 0.4268): 913.63 ± 0.42 kg/m3 | mass density (352.87 K, 17044 kPa, x2 = 0.2876): 913.64 ± 0.42 kg/m3 | mass density (352.87 K, 18010 kPa, x2 = 0.4268): 914.96 ± 0.42 kg/m3 | mass density (352.87 K, 18012 kPa, x2 = 0.2876): 914.66 ± 0.42 kg/m3 | mass density (352.87 K, 19003 kPa, x2 = 0.4268): 916.29 ± 0.42 kg/m3 | mass density (352.87 K, 19015 kPa, x2 = 0.2876): 915.7 ± 0.42 kg/m3 | mass density (352.87 K, 20024 kPa, x2 = 0.2876): 916.74 ± 0.42 kg/m3 | mass density (352.87 K, 20032 kPa, x2 = 0.4268): 917.62 ± 0.42 kg/m3 | mass density (352.87 K, 21004 kPa, x2 = 0.2876): 917.74 ± 0.42 kg/m3 | mass density (352.87 K, 21047 kPa, x2 = 0.4268): 918.93 ± 0.42 kg/m3 | mass density (352.87 K, 22005 kPa, x2 = 0.4268): 920.15 ± 0.42 kg/m3 | mass density (352.87 K, 22030 kPa, x2 = 0.2876): 918.79 ± 0.42 kg/m3 | mass density (352.87 K, 23001 kPa, x2 = 0.4268): 921.41 ± 0.42 kg/m3 | mass density (352.87 K, 23027 kPa, x2 = 0.2876): 919.77 ± 0.42 kg/m3 | mass density (352.87 K, 24014 kPa, x2 = 0.4268): 922.68 ± 0.42 kg/m3 | mass density (352.87 K, 24021 kPa, x2 = 0.2876): 920.77 ± 0.42 kg/m3 | mass density (352.87 K, 25022 kPa, x2 = 0.2876): 921.74 ± 0.42 kg/m3 | mass density (352.87 K, 25024 kPa, x2 = 0.4268): 923.93 ± 0.43 kg/m3 | mass density (362.68 K, 13997 kPa, x2 = 0.6235): 842.98 ± 0.45 kg/m3 | mass density (362.68 K, 15019 kPa, x2 = 0.6235): 847.62 ± 0.45 kg/m3 | mass density (362.68 K, 16021 kPa, x2 = 0.6235): 851.83 ± 0.45 kg/m3 | mass density (362.68 K, 16992 kPa, x2 = 0.6235): 855.82 ± 0.5 kg/m3 | mass density (362.68 K, 18022 kPa, x2 = 0.6235): 859.78 ± 0.46 kg/m3 | mass density (362.68 K, 19000 kPa, x2 = 0.6235): 863.4 ± 0.46 kg/m3 | mass density (362.68 K, 20047 kPa, x2 = 0.6235): 867.1 ± 0.46 kg/m3 | mass density (362.68 K, 21057 kPa, x2 = 0.6235): 870.49 ± 0.45 kg/m3 | mass density (362.68 K, 22005 kPa, x2 = 0.6235): 873.58 ± 0.45 kg/m3 | mass density (362.68 K, 22981 kPa, x2 = 0.6235): 876.69 ± 0.45 kg/m3 | mass density (362.68 K, 24005 kPa, x2 = 0.6235): 879.78 ± 0.46 kg/m3 | mass density (362.68 K, 24998 kPa, x2 = 0.6235): 882.71 ± 0.46 kg/m3 | mass density (362.73 K, 18005 kPa, x2 = 0.9311): 641.86 ± 0.66 kg/m3 | mass density (362.73 K, 19024 kPa, x2 = 0.9311): 662.81 ± 0.64 kg/m3 | mass density (362.73 K, 20021 kPa, x2 = 0.9311): 680.44 ± 0.61 kg/m3 | mass density (362.73 K, 21028 kPa, x2 = 0.9311): 696.02 ± 0.6 kg/m3 | mass density (362.73 K, 22008 kPa, x2 = 0.9311): 709.54 ± 0.58 kg/m3 | mass density (362.73 K, 23017 kPa, x2 = 0.9311): 722.12 ± 0.57 kg/m3 | mass density (362.73 K, 24029 kPa, x2 = 0.9311): 733.65 ± 0.57 kg/m3 | mass density (362.73 K, 25019 kPa, x2 = 0.9311): 744.01 ± 0.56 kg/m3 | mass density (362.75 K, 8032 kPa, x2 = 0.2876): 891.2 ± 0.41 kg/m3 | mass density (362.75 K, 9018 kPa, x2 = 0.2876): 892.47 ± 0.41 kg/m3 | mass density (362.75 K, 9986 kPa, x2 = 0.2876): 893.65 ± 0.42 kg/m3 | mass density (362.75 K, 10994 kPa, x2 = 0.2876): 894.89 ± 0.42 kg/m3 | mass density (362.75 K, 11002 kPa, x2 = 0.4268): 890.57 ± 0.42 kg/m3 | mass density (362.75 K, 12000 kPa, x2 = 0.2876): 896.09 ± 0.42 kg/m3 | mass density (362.75 K, 12008 kPa, x2 = 0.4268): 892.17 ± 0.42 kg/m3 | mass density (362.75 K, 13010 kPa, x2 = 0.4268): 893.74 ± 0.43 kg/m3 | mass density (362.75 K, 13037 kPa, x2 = 0.2876): 897.35 ± 0.42 kg/m3 | mass density (362.75 K, 14000 kPa, x2 = 0.4268): 895.32 ± 0.43 kg/m3 | mass density (362.75 K, 14023 kPa, x2 = 0.2876): 898.48 ± 0.42 kg/m3 | mass density (362.75 K, 15027 kPa, x2 = 0.4268): 896.84 ± 0.43 kg/m3 | mass density (362.75 K, 15039 kPa, x2 = 0.2876): 899.66 ± 0.42 kg/m3 | mass density (362.75 K, 16011 kPa, x2 = 0.2876): 900.77 ± 0.42 kg/m3 | mass density (362.75 K, 16015 kPa, x2 = 0.4268): 898.33 ± 0.43 kg/m3 | mass density (362.75 K, 17017 kPa, x2 = 0.4268): 899.81 ± 0.43 kg/m3 | mass density (362.75 K, 17019 kPa, x2 = 0.2876): 901.92 ± 0.42 kg/m3 | mass density (362.75 K, 18012 kPa, x2 = 0.2876): 903.04 ± 0.42 kg/m3 | mass density (362.75 K, 18013 kPa, x2 = 0.4268): 901.24 ± 0.43 kg/m3 | mass density (362.75 K, 19006 kPa, x2 = 0.2876): 904.14 ± 0.42 kg/m3 | mass density (362.75 K, 19024 kPa, x2 = 0.4268): 902.72 ± 0.43 kg/m3 | mass density (362.75 K, 20028 kPa, x2 = 0.4268): 904.14 ± 0.43 kg/m3 | mass density (362.75 K, 20035 kPa, x2 = 0.2876): 905.27 ± 0.42 kg/m3 | mass density (362.75 K, 20994 kPa, x2 = 0.2876): 906.3 ± 0.42 kg/m3 | mass density (362.75 K, 21039 kPa, x2 = 0.4268): 905.51 ± 0.43 kg/m3 | mass density (362.75 K, 22014 kPa, x2 = 0.4268): 906.89 ± 0.43 kg/m3 | mass density (362.75 K, 22029 kPa, x2 = 0.2876): 907.43 ± 0.42 kg/m3 | mass density (362.75 K, 23004 kPa, x2 = 0.2876): 908.45 ± 0.42 kg/m3 | mass density (362.75 K, 23027 kPa, x2 = 0.4268): 908.24 ± 0.44 kg/m3 | mass density (362.75 K, 24034 kPa, x2 = 0.2876): 909.57 ± 0.42 kg/m3 | mass density (362.75 K, 25002 kPa, x2 = 0.2876): 910.55 ± 0.43 kg/m3 | mass density (362.79 K, 18033 kPa, x2 = 0.8091): 777.33 ± 0.83 kg/m3 | mass density (362.79 K, 19005 kPa, x2 = 0.8091): 784.9 ± 0.51 kg/m3 | mass density (362.79 K, 20003 kPa, x2 = 0.8091): 792.49 ± 0.5 kg/m3 | mass density (362.79 K, 21014 kPa, x2 = 0.8091): 799.75 ± 0.5 kg/m3 | mass density (362.79 K, 22017 kPa, x2 = 0.8091): 806.5 ± 0.5 kg/m3 | mass density (362.79 K, 23043 kPa, x2 = 0.8091): 813.1 ± 0.5 kg/m3 | mass density (362.79 K, 24052 kPa, x2 = 0.8091): 819.28 ± 0.49 kg/m3 | mass density (362.79 K, 25083 kPa, x2 = 0.8091): 825.05 ± 0.51 kg/m3
